Test results: publication PMC8424372 (Journal of Pharmaceutical Analysis, 2020)
Read-outs that look alike come from different tables or passages of the source.

What was measured:
[1] = type: in vivo, human; conditions: for Detection in human plasma: after oral Gumiganghwal-tang tablets at maximum daily dose (9.6 g); for Shape of plasma concentration-time profile: after oral Gumiganghwal-tang tablets (9.6 g), humans; for AUC(0-inf) / Cmax / Tmax / half-life / Vd/F: male, human, po, 9.6 g
[2] = Freeze-thaw stability in human plasma; type: in vitro ADME; conditions: −80 °C/25 °C, mean ± SD, n = 5, %

Structure (SMILES) | Detection in human plasma [1] | Freeze-thaw stability (3 cycles) ([2]; spiked conc. 2 ng/mL) [%] | Freeze-thaw stability (3 cycles) ([2]; spiked conc. 400 ng/mL) [%] | Shape of plasma concentration-time profile [1] | AUC(0-inf) ([1]; plasma) [ng·h/mL] | Cmax ([1]; plasma) [ng/mL] | Tmax ([1]; plasma) [h] | half-life ([1]; plasma) [h] | further results
CC(C)=CCOc1c2occc2cc2ccc(=O)oc12 [Imperatorin, imperatorin] | not detected | 98.44 ± 2.60 | 101.28 ± 2.93 |  |  |  |  |  | 
CC1(C)[C@@H](O)CC[C@]2(C)[C@H]3C(=O)C=C4[C@@H]5C[C@@](C)(C(=O)O)CC[C@]5(C)CC[C@@]4(C)[C@]3(C)CC[C@@H]12 [18-beta-glycyrrhetinic acid] |  |  |  | double peaks | 988 ± 125 | 89.7 ± 14.4 | 6.42 ± 1.01 | 12.1 ± 2.28 | 
O=c1cc(-c2ccccc2)oc2cc(O)c(O)c(O)c12 [Baicalein, baicalein] |  | 96.92 ± 5.31 | 100.00 ± 2.30 | double peaks | 540 ± 122 | 52.6 ± 21.2 | 0.78 ± 0.23 | 7.78 ± 1.91 | 
O=C(O)[C@H]1O[C@@H](Oc2cc3oc(-c4ccccc4)cc(=O)c3c(O)c2O)[C@H](O)[C@@H](O)[C@@H]1O [Baicalin, baicalin] |  | 99.53 ± 2.03 | 97.95 ± 3.22 | double peaks |  |  |  |  | AUC(0-inf) ([1]; in vivo): 805000 ± 121000 ng·h/mL; Cmax ([1]; in vivo): 34300 ± 5220 ng/mL; Tmax ([1]; in vivo): 7.99 ± 1.52 h; Vd/F ([1]; in vivo): 2.5 ± 0.21 L; half-life ([1]; in vivo): 14.4 ± 3.98 h
CC1(C)O[C@H]1COc1c2ccoc2cc2oc(=O)ccc12 [Oxypeucedanin, oxypeucedanin] |  | 100.16 ± 1.88 | 99.31 ± 2.36 | double peaks | 449 ± 103 | 4.46 ± 1.29 | 8.25 ± 2.07 | 70.5 ± 10.6 | Vd/F ([1]; plasma): 275 ± 56.4 L
C=C1CCC[C@]2(C)C[C@]3(O)OC(=O)C(C)=C3C[C@@H]12 [Atractylenolide III, atractylenolide III] |  | 99.57 ± 2.04 | 96.73 ± 4.82 | double peaks | 417 ± 99.3 | 17.5 ± 5.6 | 4.33 ± 1.21 | 24.2 ± 5.29 | Vd/F ([1]; plasma): 26.2 ± 6.26 L
O=c1ccc2cc3ccoc3c(O)c2o1 [Xanthotoxol, xanthotoxol] |  | 102.24 ± 4.31 | 98.83 ± 2.95 | double peaks | 110 ± 38.6 | 3.78 ± 1.39 | 4.48 ± 1.76 | 8.98 ± 3.01 | 
C=CCc1ccc(OC)c(OC)c1 [Methyl eugenol, methyl eugenol] | not detected |  | 101.10 ± 2.84 |  |  |  |  |  | Freeze-thaw stability (3 cycles) ([2]; spiked conc. 5 ng/mL): 98.48 ± 2.51%
OCC1=C[C@@H](O)[C@@H]2C=CO[C@@H](O[C@@H]3O[C@H](CO)[C@@H](O)[C@H](O)[C@H]3O)[C@H]12 [Aucubin, aucubin] | not detected | 97.78 ± 4.39 |  |  |  |  |  |  | Freeze-thaw stability (3 cycles) ([2]; spiked conc. 500 ng/mL): 100.15 ± 2.79%
CC(C)=CC(O)C/C(C)=C/COc1c2ccoc2cc2oc(=O)ccc12 (stereo not drawn) [Notopterol, notopterol] | not detected | 97.79 ± 3.42 | 99.46 ± 2.59 |  |  |  |  |  | 
CC1(C)[C@@H](O[C@H]2O[C@H](C(=O)O)[C@@H](O)[C@H](O)[C@H]2O[C@@H]2O[C@H](C(=O)O)[C@@H](O)[C@H](O)[C@H]2O)CC[C@]2(C)[C@H]3C(=O)C=C4[C@@H]5C[C@@](C)(C(=O)O)CC[C@]5(C)CC[C@@]4(C)[C@]3(C)CC[C@@H]12 [Glycyrrhizin, glycyrrhizin] |  | 97.58 ± 4.38 | 99.43 ± 2.90 | double peaks | 67.6 ± 15.3 | 2.16 ± 1.04 | 8.04 ± 1.16 | 28.8 ± 4.24 | Vd/F ([1]; plasma): 5860 ± 1090 L
OC[C@H]1O[C@@H](O[C@@H]2OC=C[C@H]3[C@H](O)[C@@H]4O[C@]4(CO)[C@@H]23)[C@H](O)[C@@H](O)[C@@H]1O [Catalpol, catalpol] | not detected | 101.28 ± 2.95 |  |  |  |  |  |  | Freeze-thaw stability (3 cycles) ([2]; spiked conc. 500 ng/mL): 100.03 ± 2.84%
